The nature of the assay: Compound was evaluated for inhibition of Protease.
As usually defined, the IC50 is the concentration that gives 50% inhibition. A higher IC50 goes with a need for much substance. `C[C@H](NC(=O)[C@H](Cc1ccccc1)NC(=O)OCc1ccccc1)C(=O)[C@@H]1CO1` [[(S)-1-((S)-1-Methyl-2-(S)-oxiranyl-2-oxo-ethylcarbamoyl)-2-phenyl-ethyl]-carbamic acid benzyl ester] returned an IC50 of 0.08 µM.

The molecule `O=C(N[C@@H](Cc1ccccc1)C(=O)N[C@@H](CCc1ccccc1)C(=O)[C@@H]1CO1)OCc1ccccc1` [{(S)-1-[(S)-1-((S)-Oxiranecarbonyl)-3-phenyl-propylcarbamoyl]-2-phenyl-ethyl}-carbamic acid benzyl ester] displayed an IC50 of 0.01 µM.

As for `C[C@H](NC(=O)[C@H](Cc1ccccc1)NC(=O)OCc1ccccc1)C(=O)[C@H]1CO1` [[(S)-1-((S)-1-Methyl-2-(R)-oxiranyl-2-oxo-ethylcarbamoyl)-2-phenyl-ethyl]-carbamic acid benzyl ester], it took 1 µM to reach half-maximal inhibition (IC50).

Molecule `O=C(N[C@@H](Cc1ccccc1)C(=O)N[C@@H](CCc1ccccc1)C(=O)[C@H]1CO1)OCc1ccccc1` [{(S)-1-[(S)-1-((R)-Oxiranecarbonyl)-3-phenyl-propylcarbamoyl]-2-phenyl-ethyl}-carbamic acid benzyl ester] displayed an IC50 above 1 µM.

The record behind these values is BindingDB's records for doi:10.1016/s0960-894x(98)00494-6 (University of Michigan, 1999).
